Experimental findings from US20080280837A1, “Biologically Active Compounds with Anti-Angiogenic Properties” (priority 2004, published 2008) are described below.

One series deals with HUVEC tube formation. As to the kind of experiment: Matrigel tube formation assay. It counts as cell-based, human. Here is the method:
HUVEC (Clonetics) were plated in 96 well plates in EGM-2 media (Clonetics) at 2.5 to 3×10^4 cells per well. Cells of less than 6 passages were used in all studies. Wells were precoated with 50 μL growth factor containing Matrigel (Becton Dickinson). HUVEC were allowed to form tubes by incubation at 37° C. in 5% CO2 for 22 hrs. In test wells compound was added in the desired concentration. Photographic images of the wells ×4 magnification were used to determine size of the tubes, length of tubes and number of junctions using image analysis software.

Series [1] addresses T1, Human SST5 somatostatin receptor (SSTR5) (Homo sapiens, UniProt P35346).
T1 construct: expressed in transfected cells; host or cells: HEK-293 EBNA
Description: Filter plate assay for SST5 receptor, displacement of [125I]SST-14. The series is classed as binding. The following applies: Table 8. In short, it runs like this: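 HEK-293 EBNA membranes expressing human SST5 (5.5 μg) incubated 60 min at 25 °C with 4 nM [125I]SST-14 and compound in pH 7.5 Tris/EGTA/MgCl2/sucrose buffer. Bound radioactivity collected on PEI-coated glass fiber filters and counted; triplicate 1:5 dilution series from 125 μM, non-specific binding with excess cold ligand.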

Another series concerns the target T2, SSTR-2 (Homo sapiens, UniProt P30874).
T2 construct: expressed in transfected cells
As to the kind of experiment: Radioligand binding screen against somatostatin subtype SSTR-2. The note with it: Table 8; read-out: Ki SSTR2. Here is the method: (§1) Receptor membrane preparations containing the desired cloned receptor (for example cloned human somatostatin receptor subtype 5, SSTR5) and radio-labeled ligand (for example 3-[^125I]iodotyrosyl^11 Somatostatin-14)) were diluted at the concentration required for testing and according to the specific parameters associated with the selected receptor-ligand combination, including receptor Bmax, ligand Kd and any other parameters necessary to optimize the experimental conditions. When tested for competition activity to the reference ligand, “compound 1” was mixed with membrane suspension and the radiolabeled reference ligand (with or without an excess of cold ligand to the receptor for determination of non-specific binding) and incubated at the temperature required by internal standard operating procedures. Following incubation, the binding reaction was stopped by the addition of ice-cold washing buffer and filtered on appropriate filters, which are then counted. Data analysis and curve-fitting was performed with XLfit (IDBS).
(§2) 10 mM solutions of test compounds in 100% DMSO were prepared. ˜160 μl was used for each dilution (20 μl/well in triplicate).
(§3) A 1.25 mM assay stock was prepared by making a 1:8 dilution of the 10 mM solution. (To 30 μL of the 10 mM solution was added 210 μL milli-Q H2O. A 1:5 dilution series in milli-Q H2O was then prepared.
(§4) In primary screening experiments compounds were tested in duplicate for a particular concentration.

The next series deals with T3, SSTR-3 (Homo sapiens, UniProt P32745).
T3 construct: expressed in transfected cells
As to the kind of experiment: Radioligand binding screen against somatostatin subtype SSTR-3. The note with it: Table 8; shown where Ki could not be determined (NoModel); read-out: IC50 SSTR3 (in parentheses). As for the experimental part:
as §1, §2, §3, §4

For the next series, the target named is T4, SSTR-1 (Homo sapiens, UniProt P30872).
T4 construct: expressed in transfected cells
Description: Radioligand binding screen against somatostatin subtype SSTR-1. The following applies: Table 8; read-out: Ki SSTR1. As for the experimental part:
as §1, §2, §3, §4

A further series has as its target T5, SSTR-4 (Homo sapiens, UniProt P31391).
T5 construct: expressed in transfected cells
Description: Radioligand binding screen against somatostatin subtype SSTR-4 (SST4 assay). The note with it: Table 8; read-out: Ki SSTR4. As for the experimental part:
as §1, §2, §3
Assays were performed in triplicate at each concentration within the 1:5 dilution series: 250 μM, 50 μM, 10 μM, […], 0.4 μM, 0.08 μM, 0.016 μM, 0.0032 μM, etc. (for SST4 assay) and 125 μM, 10 μM, 2 μM, 1 μM, 0.5 μM, etc (for SST5 assay).
as §4

Series [2] has as its system Human Umbilical Vein Endothelial Cells (HUVEC). As to the kind of experiment: Endothelial cell proliferation assay (MTS). It counts as cell-based. The following applies: 48 hrs. As for the experimental part:
Human Umbilical Vein Endothelial Cells (HUVEC from Clonetics) were plated in 96 well plates at 1000 cell per well in EGM-2 medium (Clonetics). Cells were grown overnight at 37° C. in 5% CO2. Fresh EGM-2 medium containing compound at the desired concentration was added to the wells and the cells allowed to grow for a further 48 hrs. A MTS (Promega) colorimetric assay was performed after 48 hrs to determine cell growth according to the manufacturers instructions. Results are presented in terms of percentage growth.

Another series is described as follows: in vitro. The following applies: human, Caco-2. As for the experimental part:
The Caco-2 assay was performed according to the procedure described in the following cited article [Caco-2 Monolayers in Experimental and Theoretical Predictions of Drug Transport, Artursson P, Palm K, Luthman K., Adv. Drug Deliv. Rev., 2001, 46, 27-43].

Series [3] relates to MV522 human NSCLC tumour xenograft. As to the kind of experiment: Nude mouse model of human MV522 non-small cell lung cancer tumours. The series is classed as in vivo, nude mice. The following applies: group five: paclitaxel 16 mg/kg i.p. qdx5 alone. Here is the method: Initial Maximum Tolerated Dose (MTD) studies were done in male nude mice to determine the appropriate intravenous dosing regimen for the MV522 human NSCLC tumour model. A range of doses between 0 and 50 mg/Kg for 28 days (qdx28) were tested. Mice were randomized into groups with 5 animals per group including vehicle control. Animals were weighed twice weekly starting on day one and observed daily for adverse reactions or toxicity due to the agent. MTD studies determined the selection of 20 mg/kg and 35 mg/kg for intravenous dosing once per day for 28 days in the MV522 human NSCLC tumour xenograft model.
Male nude mice (nu/nu) between 5 and 6 weeks of age weighing approximately 20 g were implanted subcutaneously (s.c) by trocar with fragments of MV522 human tumour carcinomas harvested from s.c growing tumours in host mice. MV-522 is a metastatic human lung adenocarcinoma line. When tumours reached approximately 72 mg in size animals were pair matched into treatment and control groups with 10 mice in each group. Each mouse was tagged and followed individually throughout the experiment.
“Compound 1” was administered i.v. in a saline vehicle from day one. Vehicle control group animals were administered saline i.v. There were nine treatment groups including the vehicle control group. […]
At the end of the treatment period the mice were weighed and sacrificed. Each tumour was excised and weighed and a mean actual tumour weight (mg) per group was calculated along with the mean actual volume (mm^3). […] Mean tumour regression was determined using the formula [1−(mean actual tumour weightFINAL/mean tumour weightDAY 1)×100%].

Setting [4] is: 22 hrs, 50% inhibition of tube formation.

T3 sequence (P32745 whole entry): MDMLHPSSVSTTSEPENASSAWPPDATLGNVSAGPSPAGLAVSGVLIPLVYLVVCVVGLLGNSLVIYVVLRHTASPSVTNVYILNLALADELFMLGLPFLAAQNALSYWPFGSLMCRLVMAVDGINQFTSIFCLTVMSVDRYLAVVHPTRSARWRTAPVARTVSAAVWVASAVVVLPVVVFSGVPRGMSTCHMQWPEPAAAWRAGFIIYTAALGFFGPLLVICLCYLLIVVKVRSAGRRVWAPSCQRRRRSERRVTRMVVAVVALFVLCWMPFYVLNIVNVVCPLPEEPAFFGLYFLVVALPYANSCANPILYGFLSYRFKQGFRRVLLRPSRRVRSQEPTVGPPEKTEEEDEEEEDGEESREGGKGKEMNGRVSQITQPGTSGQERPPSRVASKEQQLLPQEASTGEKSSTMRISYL
T1 sequence (P35346 whole entry): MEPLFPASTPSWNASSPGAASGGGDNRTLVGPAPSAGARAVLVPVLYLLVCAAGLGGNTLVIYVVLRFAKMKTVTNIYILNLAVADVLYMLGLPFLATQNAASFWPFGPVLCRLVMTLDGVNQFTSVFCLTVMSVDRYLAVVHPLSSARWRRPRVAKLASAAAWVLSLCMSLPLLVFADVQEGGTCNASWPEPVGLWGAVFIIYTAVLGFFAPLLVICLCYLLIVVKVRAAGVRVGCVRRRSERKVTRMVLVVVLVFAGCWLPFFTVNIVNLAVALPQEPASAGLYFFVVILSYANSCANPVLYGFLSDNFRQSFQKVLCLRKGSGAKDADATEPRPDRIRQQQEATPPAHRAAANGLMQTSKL
T4 sequence (P30872 whole entry, species assumed): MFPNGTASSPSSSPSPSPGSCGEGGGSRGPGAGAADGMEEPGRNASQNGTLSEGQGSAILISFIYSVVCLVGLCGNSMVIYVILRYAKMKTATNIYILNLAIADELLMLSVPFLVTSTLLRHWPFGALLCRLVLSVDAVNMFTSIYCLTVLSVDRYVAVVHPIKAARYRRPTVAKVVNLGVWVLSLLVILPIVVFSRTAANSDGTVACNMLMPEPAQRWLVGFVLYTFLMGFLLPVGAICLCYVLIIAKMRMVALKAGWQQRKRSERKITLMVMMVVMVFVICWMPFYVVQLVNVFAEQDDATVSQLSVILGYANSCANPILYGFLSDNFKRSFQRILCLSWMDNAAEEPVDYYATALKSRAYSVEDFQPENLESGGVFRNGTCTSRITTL
T2 sequence (P30874 whole entry): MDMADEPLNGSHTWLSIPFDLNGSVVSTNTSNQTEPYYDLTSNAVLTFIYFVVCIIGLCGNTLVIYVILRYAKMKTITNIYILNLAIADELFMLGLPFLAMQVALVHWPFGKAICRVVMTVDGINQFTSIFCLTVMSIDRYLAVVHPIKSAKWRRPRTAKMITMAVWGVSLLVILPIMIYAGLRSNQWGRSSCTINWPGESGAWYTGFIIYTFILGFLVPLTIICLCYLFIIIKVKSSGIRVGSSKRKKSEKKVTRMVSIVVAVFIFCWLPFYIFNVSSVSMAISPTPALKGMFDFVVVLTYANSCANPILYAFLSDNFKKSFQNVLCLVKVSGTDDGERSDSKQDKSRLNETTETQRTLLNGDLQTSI
T5 sequence (P31391 whole entry): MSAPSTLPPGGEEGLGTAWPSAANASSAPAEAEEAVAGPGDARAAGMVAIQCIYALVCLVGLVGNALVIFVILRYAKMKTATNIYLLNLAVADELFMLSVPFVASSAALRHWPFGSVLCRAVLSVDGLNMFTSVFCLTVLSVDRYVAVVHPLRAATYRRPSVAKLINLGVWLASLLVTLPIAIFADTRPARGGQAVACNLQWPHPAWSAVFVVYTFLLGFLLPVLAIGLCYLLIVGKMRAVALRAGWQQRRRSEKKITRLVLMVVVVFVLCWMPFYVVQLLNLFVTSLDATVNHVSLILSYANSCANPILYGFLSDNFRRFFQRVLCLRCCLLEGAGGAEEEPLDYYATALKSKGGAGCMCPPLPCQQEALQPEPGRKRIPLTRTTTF

`COCC1OC(OCc2ccc3ccccc3c2)C(NC(=O)CCN)C(OCc2ccc(Cl)cc2)C1O` (stereo not drawn) [7 alpha]: in the series on HUVEC tube formation (setting [4]), the midpoint of the response, the EC50, lay at 50000 nM.
Still for that read-out and setting: with `COCC1OC(OCc2ccc3ccccc3c2)C(NC(=O)CCN)C(OCc2ccc(Cl)cc2)C1O` (stereo not drawn) [7 beta] the figure was 95000 nM.
Still for that read-out and setting: with `COCC1OC(OCc2ccc3ccccc3c2)C(NC(=O)CCN)C(OCc2ccc3ccccc3c2)C1O` (stereo not drawn) [16 alpha] the figure was 55000 nM.
For the compound `CS[C@@H]1O[C@H](COCc2ccc(Cl)cc2)[C@@H](O)[C@@H](OCc2ccc3ccccc3c2)[C@H]1NC(=O)CCN` [Compound 9], the concentration giving a half-maximal response (EC50) with HUVEC tube formation (Homo sapiens, 22 h) was determined as 50000 nM. Moreover, the IC50 in series [1] (shown where Ki could not be determined (NoModel), read-out: IC50 SSTR5 (in parentheses)) was 1.1 nM; on SSTR-3, 0.8 nM. The inhibition constant (Ki) at SSTR-2 is 490 nM; on SSTR-1, more than 10000 nM; at SSTR-4, 463 nM. The Percent cell growth at 125 µM in series [2] was -86%. Also, in series [2], the Percent cell growth at 250 µM was -78%.
`CS[C@@H]1O[C@H](COCc2ccc3ccccc3c2)[C@@H](O)[C@@H](OCc2ccc3ccccc3c2)[C@H]1NC(=O)CCN` [Compound 10] displayed an EC50 in the series on HUVEC tube formation (Homo sapiens, 22 h) of 125000 nM. For the same compound, the Ki in [1] is 220 nM; on SSTR-2 it was 726 nM; at SSTR-1, more than 10000 nM. Moreover, on SSTR-3, the 50% inhibitory concentration (IC50) turned out to be 228 nM. The Percent cell growth at 125 µM in series [2] was -85%. In addition, in [2], the Percent cell growth at 250 µM is -63%.
On to `OC[C@@H](O)[C@@H](O)[C@H](O)[C@H](O)CO` [mannitol, reference compound], for which the apparent permeability (Papp) in “in vitro” worked out at 0.813 ×10⁻⁶ cm/s.
Turning to `CC(=O)O[C@H]1C(=O)[C@@]2(C)[C@H]([C@H](OC(=O)c3ccccc3)[C@]3(O)C[C@H](OC(=O)[C@H](O)[C@@H](NC(=O)c4ccccc4)c4ccccc4)C(C)=C1C3(C)C)[C@]1(OC(C)=O)CO[C@@H]1C[C@@H]2O` [paclitaxel, reference compound], the “Tumour growth inhibition (TGI)” value in series [3] is given as 42.1%.
